# Read-outs that look alike come from different tables or passages of the source.
# Tests used:
# apoptotic HeLa cells [1] = assay: Binding to single apoptotic HeLa cells, fluorescent microscopy; format: cell-based
# Method: Chamber slides were pre-coated with 0.1% gelatin (G-1393 Sigma). Cells were seeded at a density of 8×10^4 cells/chamber, in a volume of 300 μl of culture medium. Apoptosis was induced by treatment with dopamine (RBI, MA, USA). Following 24 hours of incubation, the medium was replaced by a low serum-containing medium (2% FCS), with 500 μM of dopamine, for 18 hours. Non-treated cells that served as control, were kept in the growing medium without dopamine.
# For evaluation of apoptosis, cells were stained with 1 mg/ml of Hoechst 33342 dye (Molecular probes). Twenty minutes later, cells were visualized under UV light microscopy and the relative number of apoptotic cells with condensed or fragmented chromatin was then evaluated and compared with non-apoptotic cells, showing a pale and diffuse staining. Photomicrographs were taken for documentation, but are not shown here. For staining with NST500 compounds, the tested cultures were grown as specified above and washed twice with TBS (Tris Buffered Saline; 10 mM Tris PH 8.0; 150 mM NaCl). […]
# As a positive control, binding of Annexin V was performed using commercial kit (Genzyme, Mass.). Binding was evaluated with a fluorescent microscope (IX70; Olympus), using an NIBA filter (Narrow Interference Blue A from Olympus) and a ×400 magnification. […]
# apoptotic HeLa cells [2] = settings: 500 nM, FACS
# Method: Detection of binding to apoptotic HeLa cells was performed according to the following procedure: Cells were plated on tissue culture plates at a density of 5×10^6 cells/10 cm dish, and grown in their normal medium at 37° C. for 18 hr. The medium was replaced with a medium containing 2% FCS and 500 μM of dopamine. Eighteen hours later, floating cells that were identified as advanced apoptotic cells were collected and transferred to a 50 ml tube. To evaluate the level of apoptosis in the cultures, aliquots of 10^5 cells from the cultures were plated on 48 wells plate and stained with Hoechst 33342 dye (Molecular Probes) at a concentration of 1 mg/ml for 20 min (as described above). Non-treated cells served as control. For collecting the non-treated cells, the medium of the culture was aspirated and discarded, the cells were rinsed with growing medium and 2 ml of medium were added to the culture dish. The cells were detached from the culture dish using a cell scraper and separated to single cells by passage through a syringe with a 18G needle.
# The reactions were incubated at room temperature for 40 minutes and then 400 μl of TBS was added and cells were collected by centrifugation at 3000×g for 3 minutes. Cells were washed in 1 ml of TBS and centrifuged as before and detecting of the bound compound was performed using 100 μl of TBS containing streptavidin conjugated to fluorescein (FITC) (016-090-084 from Jackson ImmunoResearch lab. Inc.). Incubation was for 15 minutes at room temperature in the dark. Thereafter, 400 μl of TBS was added and cells were centrifuged and washed again with 1 ml of TBS as before, re-suspended in 400 μl of TBS and then taken for FACS analysis. The FACS analysis was performed on Beckton-Dickinson cell sorter, using lysis II software. Excitation was at 488 nm and emission for FITC detection was at 535 nm and for PI detection at 585 nm.
# HUVEC cells = assay: Binding to endothelial HUVEC cells by FACS analysis; format: cell-based, Human
# Method: Binding detection was done using flow cytometric analysis to populations of HUVEC cells.
# HUVEC (CC-2517, obtained from Clonetics, Walkersville, Md.) were grown on tissue culture flasks in Endothelial cell medium (EGM-2 Bulletkit, CC 3162, Clonetics). Mid-confluent cultures were harvested using Trypsine/EDTA solution (CC-5012, Clonetics). The cells were rinsed twice with TBS containing 2% BSA and kept on ice. Samples of 10^6 cells were tested for binding.
# Cells were washed in 1 ml of TBS-BSA and centrifuged as before and then suspended in 100 μl of TBS-BSA containing streptavidin conjugated to fluorescein (FITC) for detection of the bound biotinylated compound. […] Thereafter, 400 μl of TBS-BSA were added and cells were entrifuged and re-suspended in 400 μl of TBS and taken for FACS analysis.
# apoptotic hepatocytes = format: in vivo, mice; settings: mouse, in vivo
# Method: Massive hepatic apoptosis can be induced within 1–2 hr in mice following intravenous injection of anti-Fas antibody (Ogasawara J. et al., 1993, Nature, 364, 806–809). […] Five-weeks-old male BALB/c mice were injected intravenously with 10 μg/animal of purified hamster anti-Fas mAb (Jo2, PharMingen, San Diego, Calif.) using the model described by Ogasawara et. al. (Nature, 1993, 364, 806–809). […] Injections were performed at different time intervals between 5 min–2 hr after antibody treatment. […] All animals were killed 2 hr after administration of antibody followed by organ removal. Heart, lung and liver were collected. Liver were sectioned transversely across the mid-portion of each lobe; organs were fixed in phosphate-buffered formalin for histological and immunohisto-chemical analyses.
# Formalin fixed paraffin-embedded tissues were sectioned (5 μm) for staining with Hematoxylin/Eosin or other techniques. Endogenous peroxidase activity was blocked by incubation with 3% H2O2.
# After washing with PBS, staining was developed with 3,3-diaminobenzidine tetrahydrochloride (DAB), and counterstained with Hematoxylin.
# Liver sections from different lobes were used for detection of stained apoptotic cells compared to normal cells. Using light microscopy (×400), twenty fields of stained cells were evaluated. A ratio between the number of stained apoptotic hepatocytes versus stained normal hepatocytes in the field was defined. The stained cell's score (%) corresponds to the mean of the values for the twenty evaluated fields.
# The percentage of apoptotic cells in the fields was estimated by evaluating parallel sections stained with Hematoxylin/Eosin. Analysis was performed blindly, since the pathologist performing the histological evaluation was unaware of the assignment of mice to the treatment or control group.
# To quantitate the microscopic examination of the pharmacokinetics studies, the number of stained cells from 20 microscopic fields was counted.
substance,measurement,setting,value
Myristate-KVSFFCKNKEKKC-K (SEQ ID NO:1) (biotin) [NST513],labeling of apoptotic HeLa cells,apoptotic HeLa cells [1],potent detector of apoptotic cells
same,labeling of control non-treated HeLa cells,apoptotic HeLa cells [1],did not exhibit significant labeling
same,binding to apoptotic versus control HeLa cells,apoptotic HeLa cells [2],strong labeling of apoptotic versus control cells
same,"increase in the percentage of apoptotic cells labeled, as compared to non-apoptotic cells",apoptotic HeLa cells [2]; PI and FITC,5.5 fold
same,binding to apoptotic versus control HeLa cells,apoptotic HeLa cells [2]; listed as NST313,specifically binds to apoptotic cells
same,binding to HUVEC cells,HUVEC cells; 500 nM,strong binding
same,cells FITC positive,HUVEC cells; 500 nM,About 70%
same,fraction of HUVEC cells labeled,HUVEC cells; 250 μM,about 50%
same,increase in number of stained apoptotic cells as compared to non specific staining of non-apoptotic cells,apoptotic hepatocytes,3 times
same,ratio of apoptotic stained cells vs non-apoptotic cells,apoptotic hepatocytes,5 fold
same,staining of normal hepatocytes,apoptotic hepatocytes,never observed
same,staining of apoptotic hepatocytes in anti-Fas treated mice,apoptotic hepatocytes; iv,observed at cytoplasma and cytoplasmatic border of apoptotic hepatocytes
